The results in this text go back to patent publication US9611223B2, “3-aryl-5-substituted-isoquinolin-1-one compounds and their therapeutic use” (INSTITUTE OF CANCER RESEARCH: ROYAL CANCER HOSPITAL (THE), priority 2013, dated 2017).

The target in test [1] is T1, TNKS1 (Homo sapiens, UniProt O95271, M1266I).
T1 construct: expresses the active PARP domain of TNKS1 as a polyhistidine tagged protein; made in house; host or cells: E. coli Rosetta2(DE3)
The test can be described thus: TNKS1/PARP Biochemical Assay. The method, then:
TNKS1/PARP Biochemical Assay
Tankyrase activity was assayed using a 96-well format HT Universal Chemiluminescent PARP Assay Kit (Trevigen, Inc, cat. no. 4676-096-K) according to the manufacturer's instructions. In short, tankyrase/PARP activity is quantified by the incorporation of biotinylated nicotinamide adenine dinucleotide (biotin-NAD^+) onto the immobilised pseudo substrate, Histone. The extent of poly(Biotin-ADP)ribosylation (PARylation) in the presence of increasing dose of inhibitor is then quantified by binding of streptavidin conjugated horse radish peroxidase (strep-HRP) followed by chemiluminescent detection.
Prior to assay initiation, inhibitor stocks were prepared in aqueous DMSO (10% (v/v)) from 5 millimolar (mM) stock in 100% DMSO (Sigma Aldrich, cat. no. 265855) as 10× concentrations. For the primary assay (i.e., single dose at 1 micromolar (μM) final concentration) this corresponded to 10 μM in 10% DMSO. For IC50 determination, this corresponded to 100 μM, 30 μM, 10 μM, 3.0 μM, 1.0 μM, 0.30 μM, 0.10 μM and 0 μM in 10% DMSO for final concentrations of 10 μM, 3.0 μM, 1.0 μM, 0.30 μM, 0.10 μM, 0.030 μM, 0.010 μM, and 0 μM with 1% (v/v) final DMSO. The assay was initiated by the addition of 10× inhibitor (5 microliters (μL)) or 10% aqueous DMSO (5 μL) to triplicate wells. Twenty microliters of diluted TNKS1 protein (200 nanomolar (nM) final conc.) in PARP buffer (Trevigen, Inc, cat. no. 4671-096-02) was added to each histone coated well, which was previously hydrated with PARP buffer. Triplicate wells with 1% DMSO/buffer alone (no enzyme) were also added as a measure of assay ‘noise’. Positive control for PARP inhibition included the addition of 4-amino-1,8-naphthalimide (Sigma Aldrich, cat. no A0966) in corresponding doses.
The mixture was incubated for 10 minutes at room temperature and the PARylation reaction initiated by the addition of PARP cocktail (25 μL, Trevigen, Inc) containing biotin-NAD^+ (Trevigen, Inc, cat. no. 4670-500-01), activated DNA (Trevigen, Inc, cat. no. 4671-096-06) and PARP buffer. The reaction was incubated for 1.5 hours (for TNKS1) or 1 hour (for PARP1) at room temperature. The reaction mixture was then removed by aspiration and the wells washed (3×200 μL) with phosphate buffered saline containing Triton X-100 (0.1% (v/v), Sigma Aldrich cat. no. T8787). The wells were then washed (3×200 μL) with phosphate buffered saline and then incubated with strep-HRP (50 μL, Trevigen, Inc, cat. no. 4800-30-06) in strep-diluent (1:500 dilution, Trevigen Inc, cat. no. 4671-096-04) for 1 hour at room temperature. The Strep-HRP mixture was then aspirated and the wells washed (3×200 μL) with phosphate buffered saline containing Triton X-100 (0.1% (v/v)) followed by phosphate buffered saline (3×200 μL) and then incubated with PeroxyGlow™ reagent (100 μL, Trevigen, Inc, cat. nos. 4675-096-01, 4675-096-02, room temperature, mixed 1:1).
The amount of light emitted as a result of the peroxidase-chemiluminescent reagent reaction was in proportion to the extent of poly(Biotin-ADP)ribosylation and was immediately measured with a Victor^2 plate reader (Perkin Elmer, luminescence detection assay, luminescent units described as ‘Counts Per Second’ (CPS)). The data were normalised to the DMSO control after subtraction of ‘noise’ and was expressed as % PARP activity as a function of inhibitor dose. Inhibition was expressed as 100%−(% PARP activity). Dose response curves used to determine IC50 values were Log transformed and analysed by non-linear regression analysis (variable slope) using Prism (GraphPad Software, Inc) and were presented as IC50 with 95% confidence interval to determine relative potency.
Tankyrase1 (pNIC-Bsa4-TNKS1^PARP) expression construct was obtained from the Structural Genomics Consortium (SGC) and expresses the active PARP domain of TNKS1 as a polyhistidine tagged protein. […]

In test [2] the test system is COLO320DM cells. The test can be described thus: Tumour Cell Inhibition Assay (COLO320DM cells). To be noted: Homo sapiens, COLO 320DM, 120 h, five day exposure. It counts as cell-based. The protocol:
Tumour Cell Inhibition in Colorectal Tumour Cells
In order to determine the efficacy of acute dosing of putative TNKS inhibitors, five day exposure cell viability assays were carried out. This included the sparse seeding of cells in a 96-well plate followed by continuous dosing of cells over a five day period.
Appropriate cell lines (HT55, COLO320DM and SW620) were seeded at 500 cells/well in a 96-well plate in MEM (HT55), RPMI (COLO320DM) or DMEM (SW620) supplemented with FBS. After overnight incubation, cells were treated with the appropriate putative TNKS inhibitor in 6 or 10 concentrations ranging from 0 μM to 10 μM at 0.2% final DMSO concentration in appropriate media supplemented with 10% or 0.5% FBS. Dosages were carried out in triplicate. Termination of the assay and measurement of cell viability was achieved by the use of Cell Titre Glo reagent and luminescence measurement on an appropriate plate reader.
Dose response curves used to determine SF50 values were Log transformed and analysed by non-linear regression analysis (variable slope) using Prism (GraphPad Software, Inc).

Setting [3] is: read-out: cell inhibitory SF50 (COLO320DM).

Values joined by “and” are separate entries in the source; they are usually repeats but may differ in a detail not shown here. Equal entries are not always repeated. Where two headings read alike, the source gives them in different places.

T1 sequence (O95271 1112-1317 M1266I): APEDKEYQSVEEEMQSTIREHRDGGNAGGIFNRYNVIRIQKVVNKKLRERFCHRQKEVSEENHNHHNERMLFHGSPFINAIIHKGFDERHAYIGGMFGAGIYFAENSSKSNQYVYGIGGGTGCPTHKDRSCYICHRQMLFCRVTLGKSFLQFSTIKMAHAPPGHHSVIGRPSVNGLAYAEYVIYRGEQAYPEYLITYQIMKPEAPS

For the compound `CN(C(=O)c1ccc(-c2cc3c(C#N)cccc3c(=O)[nH]2)cc1)C1CCN(CC2CC2)CC1` [IQ-006], the IC50 was under 50 nM in test [1] and under 5000 nM in test [2] (setting [3]).

In the case of `COCCN(CCOC)C(=O)c1ccc(-c2cc3c(C#N)cccc3c(=O)[nH]2)cc1` [IQ-008], the IC50 in test [1] is under 100 nM.

Compound `CC(c1ccc(-c2cc3c(C#N)cccc3c(=O)[nH]2)cc1)N1CC(O)C1` (stereo not drawn) [IQ-009, 3-{4-[1-(3-Hydroxy-azetidin-1-yl)-ethyl]-phenyl}-1-oxo-1,2-dihydro-isoquinoline-5-carbonitrile] had an IC50 in test [1] of under 50 nM.

Consider `N#Cc1cccc2c(=O)[nH]c(-c3ccc(C(=O)N(CCO)CCO)cc3)cc12` [IQ-010, 4-(5-Cyano-1-oxo-1,2-dihydro-isoquinolin-3-yl)-N,N-bis-(2-hydroxy-ethyl)-benzamide], for which the IC50 in test [1] is under 50 nM.

Turning to `Cc1nccn1Cc1ccc(-c2cc3c(C#N)cccc3c(=O)[nH]2)cc1` [IQ-013], the IC50 is < 100 nM and < 50 nM and 18 nM in test [1]; 1120 nM in test [2] (replicate, read-out: cell inhibitory SF50 (COLO320DM), replicate).

With `CN(C)Cc1nccn1Cc1ccc(-c2cc3c(C#N)cccc3c(=O)[nH]2)cc1` [IQ-016], the IC50 was under 50 nM in test [1] and under 5000 nM in test [2] (setting [3]).

`COCc1nccn1Cc1ccc(-c2cc3c(C#N)cccc3c(=O)[nH]2)cc1` [IQ-017]: in test [1], the IC50 is under 50 nM.

`CC(C)c1nnc(N2CCN(Cc3ccc(-c4cc5c(C#N)cccc5c(=O)[nH]4)cc3)CC2)o1` [IQ-019]: in test [1], the IC50 was under 50 nM.

With `Cc1nnc(N2CCN(Cc3ccc(-c4cc5c(C#N)cccc5c(=O)[nH]4)cc3)CC2)o1` [IQ-020], the IC50 is under 50 nM in test [1] and under 5000 nM in test [2] (setting [3]).

`Cc1nnc(N2CCN(Cc3ccc(-c4cc5c(CN)cccc5c(=O)[nH]4)cc3)CC2)o1` [IQ-022] yielded an IC50 in test [1] of under 50 nM.

`COCc1nccn1Cc1ccc(-c2cc3c(CN)cccc3c(=O)[nH]2)cc1` [IQ-023, 5-Aminomethyl-3-[4-(2-methoxymethyl-imidazol-1-ylmethyl)-phenyl]-2H-isoquinolin-1-one]: the IC50 in test [1] was under 50 nM.

`CN(C)Cc1cccc2c(=O)[nH]c(-c3ccc(CN4CCN(C)CC4)cc3)cc12` [IQ-024, 5-Dimethylaminomethyl-3-[4-(4-methyl-piperazin-1-ylmethyl)-phenyl]-2H-isoquinolin-1-one]: in test [2] (setting [3]), the IC50 is under 5000 nM.

Consider `COCc1nccn1C(C)c1ccc(-c2cc3c(C#N)cccc3c(=O)[nH]2)cc1` (stereo not drawn) [IQ-028], for which the IC50 is under 50 nM in test [1] and under 5000 nM in test [2] (setting [3]).

Compound `CC(c1ccc(-c2cc3c(C#N)cccc3c(=O)[nH]2)cc1)n1ccnc1` (stereo not drawn) [IQ-029] displayed an IC50 in test [1] of under 50 nM.

Turning to `N#Cc1cccc2c(=O)[nH]c(-c3ccc(Cn4ccnn4)cc3)cc12` [IQ-030], the IC50 in test [1] is under 50 nM; in test [2] (setting [3]) it was under 5000 nM.

On to `COCc1ccnn1Cc1ccc(-c2cc3c(C#N)cccc3c(=O)[nH]2)cc1` [IQ-031], for which the IC50 in test [1] is under 100 nM.

In the case of `Cc1nnc(N2CCN(C(C)c3ccc(-c4cc5c(C#N)cccc5c(=O)[nH]4)cc3)CC2)o1` (stereo not drawn) [IQ-032], the IC50 in test [1] is under 50 nM.

In test [1], `CC(c1ccc(-c2cc3c(C#N)cccc3c(=O)[nH]2)cn1)n1ccnc1` (stereo not drawn) [IQ-034] came in with an IC50 of under 50 nM.

`N#Cc1cccc2c(=O)[nH]c(-c3ccc(CN)cc3)cc12` [IQ-043]: the IC50 in test [1] was under 100 nM.

`CCc1nnc(N2CCN(Cc3ccc(-c4cc5c(C#N)cccc5c(=O)[nH]4)cc3)CC2)o1` [IQ-044] showed an IC50 in test [1] of under 50 nM.

Consider `CC(C)(C)OC(=O)N1CCN(Cc2ccc(-c3cc4c(C#N)cccc4c(=O)[nH]3)cc2)CC1` [IQ-046], for which the IC50 in test [2] (setting [3]) was under 5000 nM.

For `CC(C)(C)OC(=O)N1CCN(c2ccc(-c3cc4c(C#N)cccc4c(=O)[nH]3)cn2)CC1` [IQ-051], the IC50 in test [2] (setting [3]) was under 5000 nM.

`Cc1nnc(N2CCN(c3ccc(-c4cc5c(C#N)cccc5c(=O)[nH]4)cc3)CC2)o1` [IQ-055, 3-{4-[4-(5-Methyl-[1,3,4]oxadiazol-2-yl)piperazin-1-yl]phenyl}-1-oxo-1,2-dihydroisoquinoline-5-carbonitrile] came in with an IC50 in test [1] of under 50 nM.

Consider `Cc1nnc(N2CCN(Cc3ccc(-c4cc5c(C#N)cccc5c(=O)[nH]4)cc3)CC2(C)C)o1` [IQ-058], for which the IC50 in test [1] is under 100 nM.
